Results as given in the kinase profiling compilation of Christmann-Franck et al. (2016).

What was measured:
Assay in all cases: radiometric filter-binding kinase assay, Kinase HotSpot
Settings in all cases: compound 0.5 µM; ATP 10 µM
[1] = target: MST4 (human) (UniProt Q9P289)
[2] = target: PDPK1 (human) (UniProt O15530)
[3] = target: EPHB1 (human) (UniProt P54762)
[4] = target: MAPK13 (human) (UniProt O15264)
[5] = target: PRKCB1 (human) (UniProt P05771)
[6] = target: PLK2 (human) (UniProt Q9NYY3)
[7] = target: STK24 (human) (UniProt Q9Y6E0)
[8] = target: AURKB (human) (UniProt Q96GD4)
[9] = target: MAPKAPK5 (human) (UniProt Q8IW41)
[10] = target: ERBB2 (human) (UniProt P04626)
[11] = target: HIPK1 (human) (UniProt Q86Z02)
[12] = target: PAK4 (human) (UniProt O96013)
[13] = target: MAPK8 (human) (UniProt P45983)
[14] = target: JAK3 JH1 JH2 (human) (UniProt P52333)
[15] = target: HIPK3 (human) (UniProt Q9H422)
[16] = target: DYRK3 (human) (UniProt O43781)
[17] = target: CDK9 CCNT1 (human) (UniProt P50750+O60563)
[18] = target: STK11 (human) (UniProt Q15831)
[19] = target: MINK1 (human) (UniProt Q8N4C8)
[20] = target: OXSR1 (human) (UniProt O95747)
OXSR1 (human), sequence (O95747 whole entry, looked up): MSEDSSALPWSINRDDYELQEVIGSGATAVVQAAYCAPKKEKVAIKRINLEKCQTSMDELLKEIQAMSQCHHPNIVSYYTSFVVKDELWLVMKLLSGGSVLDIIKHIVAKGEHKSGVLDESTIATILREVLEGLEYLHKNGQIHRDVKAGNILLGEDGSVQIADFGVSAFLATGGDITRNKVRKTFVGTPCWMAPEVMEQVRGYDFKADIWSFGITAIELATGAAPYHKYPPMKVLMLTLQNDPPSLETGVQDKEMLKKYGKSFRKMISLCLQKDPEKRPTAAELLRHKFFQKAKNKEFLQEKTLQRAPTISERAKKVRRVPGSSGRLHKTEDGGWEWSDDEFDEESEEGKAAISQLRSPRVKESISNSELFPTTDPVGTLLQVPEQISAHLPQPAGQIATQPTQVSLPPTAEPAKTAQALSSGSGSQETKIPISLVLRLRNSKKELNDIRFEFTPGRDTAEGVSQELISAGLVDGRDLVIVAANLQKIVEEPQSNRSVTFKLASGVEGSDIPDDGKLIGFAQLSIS

[21] = target: AXL (human) (UniProt P30530)
AXL (human), sequence (P30530 whole entry, looked up): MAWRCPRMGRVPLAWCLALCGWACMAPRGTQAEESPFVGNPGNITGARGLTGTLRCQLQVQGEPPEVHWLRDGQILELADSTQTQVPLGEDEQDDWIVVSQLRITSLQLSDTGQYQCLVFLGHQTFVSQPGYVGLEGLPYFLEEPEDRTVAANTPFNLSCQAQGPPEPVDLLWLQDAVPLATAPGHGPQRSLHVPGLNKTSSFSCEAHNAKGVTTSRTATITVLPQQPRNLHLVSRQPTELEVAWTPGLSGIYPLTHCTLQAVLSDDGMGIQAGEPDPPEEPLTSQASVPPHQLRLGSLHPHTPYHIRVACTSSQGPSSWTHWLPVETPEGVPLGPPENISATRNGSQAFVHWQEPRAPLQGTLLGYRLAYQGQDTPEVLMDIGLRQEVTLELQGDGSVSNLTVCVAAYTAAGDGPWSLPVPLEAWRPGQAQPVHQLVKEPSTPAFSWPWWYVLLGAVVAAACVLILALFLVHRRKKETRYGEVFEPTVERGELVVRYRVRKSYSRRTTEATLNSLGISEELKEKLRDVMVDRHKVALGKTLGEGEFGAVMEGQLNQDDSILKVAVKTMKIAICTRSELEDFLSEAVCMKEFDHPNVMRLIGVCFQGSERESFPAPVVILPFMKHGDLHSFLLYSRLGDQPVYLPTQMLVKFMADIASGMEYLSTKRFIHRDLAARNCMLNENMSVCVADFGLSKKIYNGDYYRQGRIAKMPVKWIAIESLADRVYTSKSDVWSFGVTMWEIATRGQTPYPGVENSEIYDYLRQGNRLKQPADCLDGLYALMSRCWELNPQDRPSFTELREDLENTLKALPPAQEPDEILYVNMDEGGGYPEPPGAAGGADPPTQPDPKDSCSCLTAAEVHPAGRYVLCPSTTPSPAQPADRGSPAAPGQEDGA

[22] = target: CSNK1A1 (human) (UniProt P48729)
[23] = target: CAMK4 (human) (UniProt Q16566)
[24] = target: MARK1 (human) (UniProt Q9P0L2)
[25] = target: PIM2 (human) (UniProt Q9P1W9)
[26] = target: JAK1 JH1 catalytic (human) (UniProt P23458)
[27] = target: MAP3K10 (human) (UniProt Q02779)
[28] = target: PDGFRA (human) (UniProt P16234)
[29] = target: NEK7 (human) (UniProt Q8TDX7)
NEK7 (human), sequence (Q8TDX7 whole entry, looked up): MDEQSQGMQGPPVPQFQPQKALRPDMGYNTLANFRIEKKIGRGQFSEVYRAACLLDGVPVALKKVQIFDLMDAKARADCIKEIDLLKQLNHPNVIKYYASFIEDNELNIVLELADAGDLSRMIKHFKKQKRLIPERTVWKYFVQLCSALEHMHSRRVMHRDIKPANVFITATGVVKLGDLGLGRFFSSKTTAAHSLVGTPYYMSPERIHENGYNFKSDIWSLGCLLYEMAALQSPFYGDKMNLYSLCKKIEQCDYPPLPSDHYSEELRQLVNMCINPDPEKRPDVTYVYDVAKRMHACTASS

[30] = target: RET (human) (UniProt P07949)
RET (human), sequence (P07949 whole entry, looked up): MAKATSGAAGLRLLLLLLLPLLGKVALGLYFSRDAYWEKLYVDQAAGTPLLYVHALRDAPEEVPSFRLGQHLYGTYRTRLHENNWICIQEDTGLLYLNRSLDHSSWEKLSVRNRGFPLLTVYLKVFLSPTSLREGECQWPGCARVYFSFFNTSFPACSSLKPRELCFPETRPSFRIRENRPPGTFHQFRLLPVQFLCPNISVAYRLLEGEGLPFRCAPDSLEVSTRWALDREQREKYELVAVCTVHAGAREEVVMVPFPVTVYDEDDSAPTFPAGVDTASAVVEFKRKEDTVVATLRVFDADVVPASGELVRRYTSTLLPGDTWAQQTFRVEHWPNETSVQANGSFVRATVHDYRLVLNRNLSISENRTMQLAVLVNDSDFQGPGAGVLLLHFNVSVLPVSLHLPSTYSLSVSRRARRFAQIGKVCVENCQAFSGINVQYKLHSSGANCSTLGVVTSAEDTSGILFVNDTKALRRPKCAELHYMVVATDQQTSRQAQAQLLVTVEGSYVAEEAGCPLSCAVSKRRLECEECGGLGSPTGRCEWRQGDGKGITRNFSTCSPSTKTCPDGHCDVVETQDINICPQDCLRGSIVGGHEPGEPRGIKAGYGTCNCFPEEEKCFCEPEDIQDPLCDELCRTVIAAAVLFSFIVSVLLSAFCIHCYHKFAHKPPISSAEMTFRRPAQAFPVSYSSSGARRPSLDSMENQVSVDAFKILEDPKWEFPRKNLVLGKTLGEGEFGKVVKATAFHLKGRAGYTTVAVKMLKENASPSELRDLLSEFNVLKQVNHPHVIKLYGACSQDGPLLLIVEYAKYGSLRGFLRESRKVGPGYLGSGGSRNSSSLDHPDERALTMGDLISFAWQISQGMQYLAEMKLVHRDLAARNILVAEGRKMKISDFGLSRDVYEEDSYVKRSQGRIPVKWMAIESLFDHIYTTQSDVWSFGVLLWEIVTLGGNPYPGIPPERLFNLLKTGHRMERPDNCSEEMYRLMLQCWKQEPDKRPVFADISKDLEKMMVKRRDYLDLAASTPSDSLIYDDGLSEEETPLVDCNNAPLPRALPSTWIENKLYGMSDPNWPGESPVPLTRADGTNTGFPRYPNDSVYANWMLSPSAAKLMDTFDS

[31] = target: CDK1 CCNA2 (human) (UniProt P06493+P20248)
[32] = target: PRKCZ (human) (UniProt Q05513)
[33] = target: PAK1 (human) (UniProt Q13153)
PAK1 (human), sequence (Q13153 whole entry, looked up): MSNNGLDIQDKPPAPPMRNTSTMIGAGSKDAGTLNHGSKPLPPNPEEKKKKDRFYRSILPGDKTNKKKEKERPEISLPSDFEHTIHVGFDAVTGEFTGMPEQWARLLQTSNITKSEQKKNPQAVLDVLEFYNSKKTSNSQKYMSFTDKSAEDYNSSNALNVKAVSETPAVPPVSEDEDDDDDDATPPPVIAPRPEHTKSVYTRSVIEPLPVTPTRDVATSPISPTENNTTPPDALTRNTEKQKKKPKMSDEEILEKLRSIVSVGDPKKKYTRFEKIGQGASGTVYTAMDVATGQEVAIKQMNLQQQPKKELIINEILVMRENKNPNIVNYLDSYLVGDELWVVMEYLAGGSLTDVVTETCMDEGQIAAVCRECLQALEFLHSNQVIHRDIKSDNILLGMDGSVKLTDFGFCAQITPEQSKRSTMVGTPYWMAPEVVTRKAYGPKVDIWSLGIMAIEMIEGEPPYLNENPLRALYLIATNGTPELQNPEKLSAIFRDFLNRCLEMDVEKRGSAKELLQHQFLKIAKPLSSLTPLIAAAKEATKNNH

[34] = target: SRMS (human) (UniProt Q9H3Y6)
[35] = target: FER (human) (UniProt P16591)
[36] = target: RIPK2 (human) (UniProt O43353)
[37] = target: AKT2 (human) (UniProt P31751)
AKT2 (human), sequence (P31751 whole entry, looked up): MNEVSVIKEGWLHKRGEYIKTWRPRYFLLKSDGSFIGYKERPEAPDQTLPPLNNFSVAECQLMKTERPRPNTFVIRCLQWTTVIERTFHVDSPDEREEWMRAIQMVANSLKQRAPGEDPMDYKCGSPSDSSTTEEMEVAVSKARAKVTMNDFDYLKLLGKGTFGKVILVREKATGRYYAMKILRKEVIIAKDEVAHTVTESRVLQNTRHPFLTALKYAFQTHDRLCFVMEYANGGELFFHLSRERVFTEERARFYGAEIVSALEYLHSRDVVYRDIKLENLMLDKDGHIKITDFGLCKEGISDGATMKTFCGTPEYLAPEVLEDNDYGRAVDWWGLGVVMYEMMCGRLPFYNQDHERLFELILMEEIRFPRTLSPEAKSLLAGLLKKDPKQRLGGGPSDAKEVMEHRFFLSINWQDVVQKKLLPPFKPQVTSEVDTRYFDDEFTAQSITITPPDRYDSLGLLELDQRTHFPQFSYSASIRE

[38] = target: PHKG2 (human) (UniProt P15735)
[39] = target: IRAK1 (human) (UniProt P51617)
[40] = target: PLK1 (human) (UniProt P53350)
[41] = target: CSNK1G3 (human) (UniProt Q9Y6M4)
CSNK1G3 (human), sequence (Q9Y6M4 whole entry, looked up): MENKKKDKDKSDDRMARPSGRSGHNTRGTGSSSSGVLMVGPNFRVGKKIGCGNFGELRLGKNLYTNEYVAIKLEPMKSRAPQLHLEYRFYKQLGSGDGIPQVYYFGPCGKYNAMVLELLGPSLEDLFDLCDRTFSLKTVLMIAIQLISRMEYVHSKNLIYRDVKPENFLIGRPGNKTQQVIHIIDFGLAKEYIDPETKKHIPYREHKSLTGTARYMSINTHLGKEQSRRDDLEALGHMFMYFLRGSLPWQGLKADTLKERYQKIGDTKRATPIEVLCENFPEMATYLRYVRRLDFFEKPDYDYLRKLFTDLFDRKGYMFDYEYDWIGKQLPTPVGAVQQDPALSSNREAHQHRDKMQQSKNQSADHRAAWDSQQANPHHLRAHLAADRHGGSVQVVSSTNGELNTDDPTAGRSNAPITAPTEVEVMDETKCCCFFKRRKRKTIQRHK

[42] = target: EPHA4 (human) (UniProt P54764)

PRKCB1 (human), sequence (P05771 whole entry, looked up): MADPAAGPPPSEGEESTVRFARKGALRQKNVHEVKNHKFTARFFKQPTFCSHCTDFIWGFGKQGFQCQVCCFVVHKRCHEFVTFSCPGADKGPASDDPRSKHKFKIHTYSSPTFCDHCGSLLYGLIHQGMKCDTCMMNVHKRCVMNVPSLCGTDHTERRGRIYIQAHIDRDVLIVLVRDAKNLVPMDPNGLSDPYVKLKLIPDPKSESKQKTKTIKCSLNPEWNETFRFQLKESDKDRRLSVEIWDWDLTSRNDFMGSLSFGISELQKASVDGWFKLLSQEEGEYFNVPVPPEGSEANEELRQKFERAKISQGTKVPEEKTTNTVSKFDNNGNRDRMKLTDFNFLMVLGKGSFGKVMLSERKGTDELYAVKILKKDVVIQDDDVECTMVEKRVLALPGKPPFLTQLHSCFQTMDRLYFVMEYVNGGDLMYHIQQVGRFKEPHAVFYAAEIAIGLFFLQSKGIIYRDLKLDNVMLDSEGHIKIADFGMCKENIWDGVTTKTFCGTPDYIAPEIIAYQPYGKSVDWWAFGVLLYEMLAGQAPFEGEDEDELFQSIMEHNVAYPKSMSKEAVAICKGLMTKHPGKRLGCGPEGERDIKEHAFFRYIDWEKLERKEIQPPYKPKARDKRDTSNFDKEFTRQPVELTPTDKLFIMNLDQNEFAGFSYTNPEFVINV

O=C(CCCc1ccc(-c2ccccc2F)cc1)Nc1ccc(O)cc1
residual activity [1]: 91.5%
residual activity [2]: 112%
residual activity [3]: 96.4%
residual activity [4]: 103%
residual activity [5]: 93.4%
residual activity [6]: 102%
residual activity [7]: 88.9%
residual activity [8]: 106%
residual activity [9]: 91.4%
residual activity [10]: 101%
residual activity [11]: 105%
residual activity [12]: 95.4%
residual activity [13]: 103%
residual activity [14]: 92.1%
residual activity [15]: 99.4%
residual activity [16]: 94.5%
residual activity [17]: 103%
residual activity [18]: 97.4%
residual activity [19]: 97.3%
residual activity [20]: 102%
residual activity [21]: 91.4%
residual activity [22]: 101%
residual activity [23]: 99.6%
residual activity [24]: 96.7%
residual activity [25]: 115%
residual activity [26]: 98.2%
residual activity [27]: 88.8%
residual activity [28]: 96.5%
residual activity [29]: 97.3%
residual activity [30]: 111%
residual activity [31]: 93.7%
residual activity [32]: 116%
residual activity [33]: 95.4%
residual activity [34]: 101%
residual activity [35]: 103%
residual activity [36]: 84.5%
residual activity [37]: 101%
residual activity [38]: 102%
residual activity [39]: 100%
residual activity [40]: 95.5%
residual activity [41]: 104%
residual activity [42]: 99.2%

O=C(O)/C=C/c1cc(Br)c(Br)c(Br)c1Br
residual activity [1]: 88.7%
residual activity [2]: 96.2%
residual activity [3]: 95.2%
residual activity [4]: 98.5%
residual activity [5]: 95.5%
residual activity [6]: 51.5%
residual activity [7]: 86.1%
residual activity [8]: 88.5%
residual activity [9]: 72.6%
residual activity [10]: 95.4%
residual activity [11]: 99.6%
residual activity [12]: 104%
residual activity [13]: 86.8%
residual activity [14]: 71.8%
residual activity [15]: 96.7%
residual activity [16]: 100%
residual activity [17]: 58.9%
residual activity [18]: 42.8%
residual activity [19]: 96%
residual activity [20]: 93.5%
residual activity [21]: 90.9%
residual activity [22]: 79.3%
residual activity [23]: 103%
residual activity [24]: 93.7%
residual activity [25]: 52.8%
residual activity [26]: 98.8%
residual activity [27]: 92.3%
residual activity [28]: 105%
residual activity [29]: 98%
residual activity [30]: 76.4%
residual activity [31]: 88.6%
residual activity [32]: 89.2%
residual activity [33]: 105%
residual activity [34]: 89.3%
residual activity [35]: 96.6%
residual activity [36]: 88.4%
residual activity [37]: 97.5%
residual activity [38]: 98.9%
residual activity [39]: 94.4%
residual activity [40]: 68.7%
residual activity [41]: 92.1%
residual activity [42]: 88.8%

COc1ccc(OC)c2c(=S)c3ccccc3[nH]c12
residual activity [1]: 90.8%
residual activity [2]: 94.9%
residual activity [3]: 87.1%
residual activity [4]: 103%
residual activity [5]: 101%
residual activity [6]: 97.6%
residual activity [7]: 78.9%
residual activity [8]: 89.6%
residual activity [9]: 109%
residual activity [10]: 93.6%
residual activity [11]: 107%
residual activity [12]: 102%
residual activity [13]: 96.8%
residual activity [14]: 96.7%
residual activity [15]: 101%
residual activity [16]: 98.2%
residual activity [17]: 98.8%
residual activity [18]: 84.4%
residual activity [19]: 95.9%
residual activity [20]: 90.6%
residual activity [21]: 103%
residual activity [22]: 102%
residual activity [23]: 101%
residual activity [24]: 88.3%
residual activity [25]: 103%
residual activity [26]: 102%
residual activity [27]: 92.8%
residual activity [28]: 85.6%
residual activity [29]: 97.2%
residual activity [30]: 82.8%
residual activity [31]: 96.2%
residual activity [32]: 99.4%
residual activity [33]: 89.2%
residual activity [34]: 83.5%
residual activity [35]: 84%
residual activity [36]: 108%
residual activity [37]: 94.6%
residual activity [38]: 94.6%
residual activity [39]: 91.1%
residual activity [40]: 93.6%
residual activity [41]: 86.2%
residual activity [42]: 88.8%

COc1cc2ncnc(N3CCN(C(=O)Nc4ccc(Oc5ccccc5)cc4)CC3)c2cc1OC
residual activity [1]: 95.4%
residual activity [2]: 92.3%
residual activity [3]: 94.3%
residual activity [4]: 104%
residual activity [5]: 94.5%
residual activity [6]: 105%
residual activity [7]: 99.6%
residual activity [8]: 76.1%
residual activity [9]: 118%
residual activity [10]: 100%
residual activity [11]: 96.9%
residual activity [12]: 101%
residual activity [13]: 90.5%
residual activity [14]: 107%
residual activity [15]: 87.4%
residual activity [16]: 86.3%
residual activity [17]: 97.3%
residual activity [18]: 105%
residual activity [19]: 99.6%
residual activity [20]: 119%
residual activity [21]: 91.7%
residual activity [22]: 108%
residual activity [23]: 102%
residual activity [24]: 99.1%
residual activity [25]: 101%
residual activity [26]: 96.5%
residual activity [27]: 92%
residual activity [28]: 16.4%
residual activity [29]: 105%
residual activity [30]: 104%
residual activity [31]: 92.3%
residual activity [32]: 96%
residual activity [33]: 91.8%
residual activity [34]: 93.6%
residual activity [35]: 99.8%
residual activity [36]: 93.7%
residual activity [37]: 87.6%
residual activity [38]: 128%
residual activity [39]: 116%
residual activity [40]: 96.6%
residual activity [41]: 82.7%
residual activity [42]: 93.2%
